Reference: PMC10817917, “Alkyl deoxyglycoside-polymyxin combinations against critical priority carbapenem-resistant gram-negative bacteria” (Scientific Reports, 2024)
Read-outs that look alike come from different tables or passages of the source.

Assays:
K. pneumoniae CQ1942 = experiment: Broth microdilution MIC, glycosides with or without polymyxins; assay type: cell-based, Klebsiella pneumoniae; settings: for MIC: Klebsiella pneumoniae, CQ1942
K. pneumoniae CQ1947 = experiment: as above; assay type: cell-based, Klebsiella pneumoniae; settings: for MIC: Klebsiella pneumoniae, CQ1947
A. baumannii CQ4322 = experiment: Broth microdilution MIC/MBC, glycosides with or without polymyxins; assay type: cell-based, Acinetobacter baumannii; settings: for MIC: Acinetobacter baumannii, CQ4322
P. aeruginosa CQ4924 = experiment: Broth microdilution MIC, glycosides with or without polymyxins; assay type: cell-based, Pseudomonas aeruginosa; settings: for MIC: Pseudomonas aeruginosa, CQ4924
[1] = alone, read-out: MICA (MIC of each compound individually)
[2] = combination with the lowest FICI
[3] = compound + colistin, lowest FICI

CCCCCCCCCCCCO[C@H]1C[C@H](O)[C@@H](O)[C@H](C)O1 [Compound 3, dodecyl 2,6-dideoxy-α-L-arabino-hexopyranoside]
MIC of colistin in combination with the compound (K. pneumoniae CQ1942; Cpd conc. 6.25 μg/mL, strain E): 0.25 µg/mL
MIC of colistin in combination with the compound (K. pneumoniae CQ1942; Cpd conc. 12.5 μg/mL, strain E): 0.25 µg/mL
MIC of colistin in combination with the compound (K. pneumoniae CQ1942; Cpd conc. […], strain E): 0.5 µg/mL
MIC (K. pneumoniae CQ1942; agent alone, no adjuvant (polymyxin conc. 0), strain E, read-out: MIC): > 100 µg/mL
MIC (K. pneumoniae CQ1942; [1]): > 100 µg/mL
MIC of compound in combination with PMB (K. pneumoniae CQ1942; PMB 0.25 μg/mL, strain E): > 100 µg/mL
MIC of compound in combination with PMB (K. pneumoniae CQ1942; PMB 0.5 μg/mL, strain E): ≤ 0.1 µg/mL
MIC of compound in combination with colistin (K. pneumoniae CQ1942; colistin 0.06 μg/mL, strain E): > 100 µg/mL
MIC of compound in combination with colistin (K. pneumoniae CQ1942; colistin 0.125 μg/mL, strain E): > 100 µg/mL
MIC of compound in combination with colistin (K. pneumoniae CQ1942; colistin 0.25 μg/mL, strain E): 3.1 µg/mL
MIC of compound in combination with colistin (K. pneumoniae CQ1942; colistin 0.5 μg/mL, strain E): ≤ 0.1 µg/mL
MICA(A + B) (MIC of compound in combination with colistin) (K. pneumoniae CQ1942; [2]): 3.125 µg/mL
MICB(A + B) (MIC of colistin in combination with compound) (K. pneumoniae CQ1942; [2]): 0.25 µg/mL
Interpretation (of FICI) (K. pneumoniae CQ1942; compound + colistin): Additive (from 0.5 to 1.0 were additive)
FICI (K. pneumoniae CQ1942; [3]): 0.52
MIC of colistin in combination with the compound (K. pneumoniae CQ1947; Cpd conc. 0.4 μg/mL, strain F): 0.5 µg/mL
MIC of colistin in combination with the compound (K. pneumoniae CQ1947; Cpd conc. 0.8 μg/mL, strain F): 0.5 µg/mL
MIC of colistin in combination with the compound (K. pneumoniae CQ1947; Cpd conc. 3.125 μg/mL, strain F): 0.5 µg/mL
MIC of colistin in combination with the compound (K. pneumoniae CQ1947; Cpd conc. 6.25 μg/mL, strain F): 0.5 µg/mL
MIC of colistin in combination with the compound (K. pneumoniae CQ1947; Cpd conc. 12.5 μg/mL, strain F): 0.5 µg/mL
MIC of colistin in combination with the compound (K. pneumoniae CQ1947; Cpd conc. […], strain F): 0.5 µg/mL
MIC (K. pneumoniae CQ1947; agent alone, no adjuvant (polymyxin conc. 0), strain F, read-out: MIC): > 100 µg/mL
MIC (K. pneumoniae CQ1947; [1]): > 100 µg/mL
MIC of compound in combination with PMB (K. pneumoniae CQ1947; PMB 0.25 μg/mL, strain F): > 100 µg/mL
MIC of compound in combination with PMB (K. pneumoniae CQ1947; PMB 0.5 μg/mL, strain F): 1.6 µg/mL
MIC of compound in combination with colistin (K. pneumoniae CQ1947; colistin 0.06 μg/mL, strain F): > 100 µg/mL
MIC of compound in combination with colistin (K. pneumoniae CQ1947; colistin 0.125 μg/mL, strain F): > 100 µg/mL
MIC of compound in combination with colistin (K. pneumoniae CQ1947; colistin 0.25 μg/mL, strain F): > 100 µg/mL
MIC of compound in combination with colistin (K. pneumoniae CQ1947; colistin 0.5 μg/mL, strain F): ≤ 0.1 µg/mL
MICA(A + B) (MIC of compound in combination with colistin) (K. pneumoniae CQ1947; [2]): 0.4 µg/mL
MICB(A + B) (MIC of colistin in combination with compound) (K. pneumoniae CQ1947; [2]): 0.5 µg/mL
Interpretation (of FICI) (K. pneumoniae CQ1947; compound + colistin): Indifferent (1.0 to 4.0 were indifferent)
FICI (K. pneumoniae CQ1947; [3]): 1.002
MIC (A. baumannii CQ4322; agent alone, no adjuvant (polymyxin conc. 0), strain G, read-out: MIC): > 100 µg/mL
MIC (A. baumannii CQ4322; [1]): > 100 µg/mL
MIC of colistin in combination with the compound (A. baumannii CQ4322; Cpd conc. 0.4 μg/mL, strain G): 0.5 µg/mL
MIC of colistin in combination with the compound (A. baumannii CQ4322; Cpd conc. 0.8 μg/mL, strain G): 0.5 µg/mL
MIC of colistin in combination with the compound (A. baumannii CQ4322; Cpd conc. 3.125 μg/mL, strain G): 0.5 µg/mL
MIC of colistin in combination with the compound (A. baumannii CQ4322; Cpd conc. 6.25 μg/mL, strain G): 0.25 µg/mL
MIC of colistin in combination with the compound (A. baumannii CQ4322; Cpd conc. 12.5 μg/mL, strain G): 0.25 µg/mL
MIC of colistin in combination with the compound (A. baumannii CQ4322; Cpd conc. […], strain G): 0.5 µg/mL
MIC of compound in combination with PMB (A. baumannii CQ4322; PMB 0.25 μg/mL, strain G): > 100 µg/mL
MIC of compound in combination with PMB (A. baumannii CQ4322; PMB 0.5 μg/mL, strain G): 0.8 µg/mL
MIC of compound in combination with colistin (A. baumannii CQ4322; colistin 0.06 μg/mL, strain G): > 100 µg/mL
MIC of compound in combination with colistin (A. baumannii CQ4322; colistin 0.125 μg/mL, strain G): > 100 µg/mL
MIC of compound in combination with colistin (A. baumannii CQ4322; colistin 0.25 μg/mL, strain G): 6.3 µg/mL
MIC of compound in combination with colistin (A. baumannii CQ4322; colistin 0.5 μg/mL, strain G): ≤ 0.1 µg/mL
MICA(A + B) (MIC of compound in combination with colistin) (A. baumannii CQ4322; [2]): 6.25 µg/mL
MICB(A + B) (MIC of colistin in combination with compound) (A. baumannii CQ4322; [2]): 0.25 µg/mL
Interpretation (of FICI) (A. baumannii CQ4322; compound + colistin): Additive (from 0.5 to 1.0 were additive)
FICI (A. baumannii CQ4322; [3]): 0.53
MIC of colistin in combination with the compound (P. aeruginosa CQ4924; Cpd conc. 0.4 μg/mL, strain H): > 0.5 µg/mL
MIC of colistin in combination with the compound (P. aeruginosa CQ4924; Cpd conc. 0.8 μg/mL, strain H): > 0.5 µg/mL
MIC of colistin in combination with the compound (P. aeruginosa CQ4924; Cpd conc. 3.125 μg/mL, strain H): 0.5 µg/mL
MIC of colistin in combination with the compound (P. aeruginosa CQ4924; Cpd conc. 6.25 μg/mL, strain H): 0.5 µg/mL
MIC of colistin in combination with the compound (P. aeruginosa CQ4924; Cpd conc. 12.5 μg/mL, strain H): 0.5 µg/mL
MIC of colistin in combination with the compound (P. aeruginosa CQ4924; Cpd conc. […], strain H): > 0.5 µg/mL
MIC of compound in combination with PMB (P. aeruginosa CQ4924; PMB 0.25 μg/mL, strain H): > 100 µg/mL
MIC of compound in combination with PMB (P. aeruginosa CQ4924; PMB 0.5 μg/mL, strain H): > 100 µg/mL
MIC (P. aeruginosa CQ4924; agent alone, no adjuvant (polymyxin conc. 0), strain H, read-out: MIC): > 100 µg/mL
MIC (P. aeruginosa CQ4924; [1]): > 100 µg/mL
MIC of compound in combination with colistin (P. aeruginosa CQ4924; colistin 0.06 μg/mL, strain H): > 100 µg/mL
MIC of compound in combination with colistin (P. aeruginosa CQ4924; colistin 0.125 μg/mL, strain H): > 100 µg/mL
MIC of compound in combination with colistin (P. aeruginosa CQ4924; colistin 0.25 μg/mL, strain H): > 100 µg/mL
MIC of compound in combination with colistin (P. aeruginosa CQ4924; colistin 0.5 μg/mL, strain H): 3.1 µg/mL
MICA(A + B) (MIC of compound in combination with colistin) (P. aeruginosa CQ4924; [2]): 3.125 µg/mL
MICB(A + B) (MIC of colistin in combination with compound) (P. aeruginosa CQ4924; [2]): 0.5 µg/mL
Interpretation (of FICI) (P. aeruginosa CQ4924; compound + colistin): Additive (from 0.5 to 1.0 were additive)
FICI (P. aeruginosa CQ4924; [3]): 0.52
